Legend:
Assay in all cases: Bliss interaction score (quartile over a dose matrix) (fitness difference); higher = more antagonism (negative = synergy)
B. subtilis 168 = tested on: B. subtilis 168
Summary of the method: (§1)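 The Bliss score is observed minus expected fitness under the product model, reported as quartiles over technical, biological and donor/recipient replicates. Fitness is the OD595 at entry into stationary phase divided by the plate's robust no-drug mean and capped at 1. Single-drug fitness was inferred from combination data.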

S. aureus DSM 20231 = tested on: S. aureus DSM 20231
Summary of the method: as §1

S. aureus Newman = tested on: S. aureus Newman
Summary of the method: as §1

S. pneumoniae D39V = tested on: S. pneumoniae D39V
Summary of the method: as §1
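Further: first quartile when negative (synergy) and third quartile when positive (antagonism).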

Compound	Bliss interaction score (B. subtilis 168; main component drawn)	Bliss interaction score (S. aureus DSM 20231; main component drawn)	Bliss interaction score (S. aureus Newman; main component drawn)	Bliss interaction score (S. pneumoniae D39V; main component drawn)	Bliss interaction score (B. subtilis 168)	Bliss interaction score (S. aureus DSM 20231)	Bliss interaction score (S. aureus Newman)	Bliss interaction score (S. pneumoniae D39V)
CC1(C)S[C@@H]2[C@H](NC(=O)Cc3ccccc3)C(=O)N2[C@H]1C(=O)O [PenicillinG] + CCCCCCCCCC(=O)N[C@@H]1[C@H]([C@@H]([C@H](O[C@H]1OC2=C3C=C4C=C2OC5=C(C=C(C=C5)[C@H]([C@H]6C(=O)N[C@@H](C7=C(C(=CC(=C7)O)OC8[C@H]([C@H]([C@@H]([C@H](O8)CO)O)O)O)C9=C(C=CC(=C9)[C@H](C(=O)N6)NC(=O)[C@@H]4NC(=O)[C@@H]1C2=CC(=CC(=C2)OC2=C(C=CC(=C2)[C@H](C(=O)N[C@H](CC2=CC(=C(O3)C=C2)Cl)C(=O)N1)N)O)O)O)C(=O)O)O[C@H]1[C@@H]([C@H]([C@@H]([C@H](O1)CO)O)O)NC(=O)C)Cl)CO)O)O [Teicoplanin]	-0.176	-0.0396	0.0744	-0.0521				
C[C@H]1c2cccc(O)c2C(=O)C2=C(O)[C@]3(O)C(=O)C(C(N)=O)=C(O)[C@@H](N(C)C)[C@@H]3[C@@H](O)[C@@H]21 [Doxycycline] + CC[C@H]1OC(=O)[C@H](C)C(=O)[C@H](C)[C@@H](O[C@@H]2O[C@H](C)C[C@H](N(C)C)[C@H]2O)[C@](C)(OC)C[C@@H](C)C(=O)[C@H](C)[C@H]2N(CCCCn3cnc(-c4cccnc4)c3)C(=O)O[C@]12C [Telithromycin]					-0.326	-0.0892	-0.0224	-0.261
CN(C)[C@@H]1C(O)=C(C(N)=O)C(=O)[C@@]2(O)C(O)=C3C(=O)c4c(O)ccc(Cl)c4[C@@](C)(O)[C@H]3C[C@@H]12 [Clortetracycline] + CN[C@@H]1[C@H](O[C@H]2[C@H](O[C@H]3[C@H](O)[C@@H](O)[C@H](N=C(N)N)[C@@H](O)[C@@H]3N=C(N)N)O[C@@H](C)[C@]2(O)C=O)O[C@@H](CO)[C@H](O)[C@H]1O [Streptomycin]					0.156	-0.0487	-0.0515	-0.0408
CN(C)[C@@H]1C(O)=C(C(N)=O)C(=O)[C@@]2(O)C(O)=C3C(=O)c4c(O)ccc(Cl)c4[C@@](C)(O)[C@H]3C[C@@H]12 [Clortetracycline] + CCCCCCCCCC(=O)N[C@@H]1[C@H]([C@@H]([C@H](O[C@H]1OC2=C3C=C4C=C2OC5=C(C=C(C=C5)[C@H]([C@H]6C(=O)N[C@@H](C7=C(C(=CC(=C7)O)OC8[C@H]([C@H]([C@@H]([C@H](O8)CO)O)O)O)C9=C(C=CC(=C9)[C@H](C(=O)N6)NC(=O)[C@@H]4NC(=O)[C@@H]1C2=CC(=CC(=C2)OC2=C(C=CC(=C2)[C@H](C(=O)N[C@H](CC2=CC(=C(O3)C=C2)Cl)C(=O)N1)N)O)O)O)C(=O)O)O[C@H]1[C@@H]([C@H]([C@@H]([C@H](O1)CO)O)O)NC(=O)C)Cl)CO)O)O [Teicoplanin]	0.0958	0.111	0.0527	-0.0412				
N#CC(C#N)=NNc1cccc(Cl)c1 [CCCP] + Clc1ccc(COC(Cn2ccnc2)c2ccc(Cl)cc2Cl)c(Cl)c1 [Miconazole]					0.0582	-0.0382	-0.0554	-0.0431
CC(=O)Oc1ccccc1C(=O)O [Acetylsalicylicacid] + COc1cccc2c1C(=O)c1c(O)c3c(c(O)c1C2=O)C[C@@](O)(C(=O)CO)C[C@@H]3O[C@H]1C[C@H](N)[C@H](O)[C@H](C)O1 [Doxorubicin]					0.225	0.0666	0.0561	0.0551
CO/N=C(\C(=O)N[C@@H]1C(=O)N2C(C(=O)O)=C(COC(N)=O)CS[C@H]12)c1ccco1 [Cefuroxime] + O=C1CN(/N=C/c2ccc([N+](=O)[O-])o2)C(=O)N1 [Nitrofurantoin]					-0.104	0.0612	-0.0317	0.0749
COc1cccc2c1C(=O)c1c(O)c3c(c(O)c1C2=O)C[C@@](O)(C(=O)CO)C[C@@H]3O[C@H]1C[C@H](N)[C@H](O)[C@H](C)O1 [Doxorubicin] + C[C@H]1c2cccc(O)c2C(=O)C2=C(O)[C@]3(O)C(=O)C(C(N)=O)=C(O)[C@@H](N(C)C)[C@@H]3[C@@H](O)[C@@H]21 [Doxycycline]					0.0384	0.0574	-0.0163	-0.144
CO/N=C(\C(=O)N[C@@H]1C(=O)N2C(C(=O)O)=C(COC(N)=O)CS[C@H]12)c1ccco1 [Cefuroxime] + CC1(C)S[C@@H]2[C@H](NC(=O)Cc3ccccc3)C(=O)N2[C@H]1C(=O)O [PenicillinG]					-0.0758	-0.154	0.102	-0.0476
CO/N=C(\C(=O)N[C@@H]1C(=O)N2C(C(=O)O)=C(COC(C)=O)CS[C@H]12)c1csc(N)n1 [Cefotaxime] + CC(=O)O[C@H]1C[C@@]2(C)[C@@H](C[C@@H](O)[C@H]3[C@@]4(C)CC[C@@H](O)[C@@H](C)[C@@H]4CC[C@@]32C)/C1=C(\CCC=C(C)C)C(=O)O [Fusidic acid]					0.0613	0.0189	0.0487	0.11
C[C@@H]1O[C@@H]1P(=O)(O)O [Fosfomycin] + CN[C@H](CC(C)C)C(=O)N[C@H]1C(=O)N[C@@H](CC(N)=O)C(=O)N[C@H]2C(=O)N[C@H]3C(=O)N[C@H](C(=O)N[C@H](C(=O)O)c4cc(O)cc(O)c4-c4cc3ccc4O)[C@H](O[C@H]3C[C@](C)(N)[C@@H](O)[C@H](C)O3)c3ccc(c(Cl)c3)Oc3cc2cc(c3O[C@@H]2O[C@H](CO)[C@@H](O)[C@H](O)[C@H]2O[C@H]2C[C@](C)(NCc3ccc(-c4ccc(Cl)cc4)cc3)[C@@H](O)[C@H](C)O2)Oc2ccc(cc2Cl)[C@H]1O [Oritavancin]					0.0255	0.0683	0.0953	-0.0314
CC(=O)Oc1ccccc1C(=O)O [Acetylsalicylicacid] + C/C(=C\C(=O)OCCCCCCCCC(=O)O)C[C@@H]1OC[C@H](C[C@@H]2O[C@H]2[C@@H](C)[C@H](C)O)[C@@H](O)[C@H]1O [Pseudomonic acid]					-0.2	-0.0241	-0.0211	-0.0974
CC(=O)Oc1ccccc1C(=O)O [Acetylsalicylicacid] + CN(C)[C@@H]1C(O)=C(C(N)=O)C(=O)[C@@]2(O)C(O)=C3C(=O)c4c(O)ccc(Cl)c4[C@@](C)(O)[C@H]3C[C@@H]12 [Clortetracycline]					-0.311	-0.101	-0.0574	-0.0497
CO/N=C(\C(=O)N[C@@H]1C(=O)N2C(C(=O)O)=C(COC(N)=O)CS[C@H]12)c1ccco1 [Cefuroxime] + C[C@@H](O)[C@H]1C(=O)N2C(C(=O)O)=C(SCCNC=N)C[C@H]12 [Imipenem]					0.0678	0.145	-0.0353	0.0481
CC1(C)S[C@@H]2[C@H](NC(=O)Cc3ccccc3)C(=O)N2[C@H]1C(=O)O [PenicillinG] + CN[C@@H]1[C@H](O[C@H]2[C@H](O[C@H]3[C@H](O)[C@@H](O)[C@H](N=C(N)N)[C@@H](O)[C@@H]3N=C(N)N)O[C@@H](C)[C@]2(O)C=O)O[C@@H](CO)[C@H](O)[C@H]1O [Streptomycin]					0.0319	-0.0333	-0.0403	-0.119
CO/N=C(\C(=O)N[C@@H]1C(=O)N2C(C(=O)O)=C(COC(C)=O)CS[C@H]12)c1csc(N)n1 [Cefotaxime] + CO[C@@]12[C@H](COC(N)=O)C3=C(C(=O)C(C)=C(N)C3=O)N1C[C@@H]1N[C@@H]12 [MitomycinC]					-0.135	0.0387	0.0256	0.118
CC1(C)S[C@@H]2[C@H](NC(=O)Cc3ccccc3)C(=O)N2[C@H]1C(=O)O [PenicillinG] + C/C(=C\C(=O)OCCCCCCCCC(=O)O)C[C@@H]1OC[C@H](C[C@@H]2O[C@H]2[C@@H](C)[C@H](C)O)[C@@H](O)[C@H]1O [Pseudomonic acid]					0.0659	0.0362	0.0196	0.0842
CC(=O)Oc1ccccc1C(=O)O [Acetylsalicylicacid] + Cc1onc(-c2ccccc2)c1C(=O)N[C@@H]1C(=O)N2[C@@H]1SC(C)(C)[C@@H]2C(=O)O [Oxacillin]					0.0506	0.113	0.0916	0.0623
N#CC(C#N)=NNc1cccc(Cl)c1 [CCCP] + Cc1cc(NS(=O)(=O)c2ccc(N)cc2)no1 [Sulfamethoxazol]					-0.0348	-0.0343	-0.0463	0.0794
N#CC(C#N)=NNc1cccc(Cl)c1 [CCCP] + CO/N=C(\C(=O)N[C@@H]1C(=O)N2C(C(=O)O)=C(COC(N)=O)CS[C@H]12)c1ccco1 [Cefuroxime]					0.0873	-0.256	-0.112	0.0309
N#CC(C#N)=NNc1cccc(Cl)c1 [CCCP] + O=C1CN(/N=C/c2ccc([N+](=O)[O-])o2)C(=O)N1 [Nitrofurantoin]					-0.0566	-0.0278	-0.0479	-0.109
CC(=O)Oc1ccccc1C(=O)O [Acetylsalicylicacid] + C[C@H]1COc2c(N3CCN(C)CC3)c(F)cc3c(=O)c(C(=O)O)cn1c23 [Levofloxacin]					0.12	0.0854	0.12	0.142
